This passage reports IC50 results from patent publication US8658646B2, “Pyrrolopyrazine kinase inhibitors” (Hoffmann-LaRoche Inc., priority 2011, dated 2014).

The target of assay [1] is T1, recombinant human SYK360-635 (Homo sapiens, UniProt P43405).
T1 construct: made in house
Put plainly: Determination of IC50 of Spleen Tyrosine Kinase (SYK) inhibition, 33P ATP filtration assay. Type of assay: biochemical. The conditions noted are these: SYK aa 360-635 0.5 nM; ATP 20 μM, peptide 5 μM, 0.1% BSA; read-out: SYK_ENZYME_FILTRATION/v1, BSA.

The target of assay [2] is T2, JAK3: Recombinant human kinase domain (Homo sapiens, UniProt P52333).
T2 construct: JAK3: Recombinant human kinase domain from Millipore (Cat #14-629) or prepared; purchased Millipore 14-629
The experiment in a line: Determination of IC50 of Janus Kinase (JAK) inhibition, radioactive end-point 33P-ATP assay, JAK3. The format is biochemical. The conditions noted are these: ATP 1.5 uM, peptide 50 uM, 20 minutes, read-out: JAK3-INHIB-DR/v1~NO ADDITIVE~Enzyme_Conc = 100.
Experimental: Determination of IC50 of Janus Kinase (JAK) Inhibition:
Assay conditions used are described below: • Assay Buffer: JAK Kinase Buffer: 50 mM Hepes [pH 7.2], 10 mM MgCl2, 1 mM DTT, 1 mg/ml BSA. The assay was carried out in this buffer. • Assay Format The kinase activity of all three JAK kinases was measured using a radioactive, end-point assay and with trace amounts of ^33P-ATP. The assays were carried out in 96-well polypropylene plates. Experimental Method:
All concentrations were final in the reaction mixture and all incubations were carried at room temperature. […] Final concentration of DMSO in the reaction was 10%. • 2) Compounds were preincubated with enzyme (0.5 nM JAK3 (commercially available), 0.2 nM JAK3 (prepared), 1 nM JAK2, 5 nM JAK1) for 10 minutes. • 3) Reactions were initiated by the addition of a cocktail of the two substrates (ATP and peptide premixed in the JAK Kinase Buffer). […] JAK1 assay was carried out at an ATP concentration of 10 uM and a peptide concentration of 50 uM. • 4) The duration of the assay for JAK2 and JAK3 is 20 minutes. JAK1 assay was carried out for 40 minutes. With all three enzymes, reactions were terminated by the addition of 0.5M EDTA to a final concentration of 100 mM. • 5) 25 ul of terminated reactions were transferred to 150 ul of a 7.5% (v/v) slurry of streptavidin-coated sepharose beads in MgCl2- and CaCl2-free 1× Phosphate Buffered Saline containing 50 mM of EDTA in 96-well, 1.2 um MultiScreen-BV filter plates. • 6) After a 30-minute incubation, the beads were washed under vacuum with the following buffers: • a. 3 to 4 washes with 200 ul of 2M NaCl. • b. 3 to 4 washes with 200 ul of 2M NaCl plus 1% (v/v) phosphoric acid. • c. 1 wash with water. • 7) Washed plates were dried in a 60° C. oven for between 1 to 2 hours. • 8) 70 ul of Microscint 20 scintillation fluid was added to each well of filter plates and after at least 30 minutes of incubation, radioactive counts were measured in a Perkinelmer microplate scintillation counter.

T2 sequence (P52333 822-1111 limits assumed): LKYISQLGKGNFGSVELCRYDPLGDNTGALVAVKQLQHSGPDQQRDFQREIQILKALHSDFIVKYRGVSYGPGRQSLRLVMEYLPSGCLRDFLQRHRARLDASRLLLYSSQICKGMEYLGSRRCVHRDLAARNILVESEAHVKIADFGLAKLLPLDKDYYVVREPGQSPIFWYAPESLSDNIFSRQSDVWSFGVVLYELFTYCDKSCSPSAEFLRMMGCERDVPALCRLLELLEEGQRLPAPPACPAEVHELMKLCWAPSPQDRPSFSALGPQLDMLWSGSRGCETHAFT

For the compound `CC(CCCC(C)(C)O)NC(=O)c1c[nH]c2ncc(-c3nn(C)c4cc(Cl)ccc34)nc12` (stereo not shown) [Example I-163, 2-(6-Chloro-1-methyl-1H-indazol-3-yl)-5H-pyrrolo[2,3-b]pyrazine-7-carboxylic acid (5-hydroxy-1,5-dimethyl-hexyl)-amide], the IC50 stood at 356 nM in assay [1] and 80.7 nM in assay [2].
For the compound `COC[C@H](C)NC(=O)c1c[nH]c2ncc(-c3nn(C)c4cc(Cl)ccc34)nc12` [Example I-165, 2-(6-Chloro-1-methyl-1H-indazol-3-yl)-5H-pyrrolo[2,3-b]pyrazine-7-carboxylic acid ((S)-2-methoxy-1-methyl-ethyl)-amide], the IC50 in assay [1] amounted to 17 nM; in assay [2] it was 1.14 nM.
As for `Cn1nc(-c2cnc3[nH]cc(C(=O)N[C@@H]4CCCN(CC(F)(F)F)C4)c3n2)c2ccc(Cl)cc21` [Example I-168, 2-(6-Chloro-1-methyl-1H-indazol-3-yl)-5H-pyrrolo[2,3-b]pyrazine-7-carboxylic acid [(R)-1-(2,2,2-trifluoro-ethyl)-piperidin-3-yl]-amide], the IC50 amounted to 3710 nM in assay [1] and 118 nM in assay [2].
In the same order, the values of `Cn1nc(-c2cnc3[nH]cc(C(=O)NC4CCCC(N)C4)c3n2)c2ccc(Cl)cc21` (stereo not shown) [Example I-169, 2-(6-Chloro-1-methyl-1H-indazol-3-yl)-5H-pyrrolo[2,3-b]pyrazine-7-carboxylic acid (3-amino-cyclohexyl)-amide] are 12 nM and 391 nM.
Turning to `CC(O)C(C)NC(=O)c1c[nH]c2ncc(-c3nn(C)c4cc(Cl)ccc34)nc12` (stereo not shown) [Example I-172, 2-(6-Chloro-1-methyl-1H-indazol-3-yl)-5H-pyrrolo[2,3-b]pyrazine-7-carboxylic acid (2-hydroxy-1-methyl-propyl)-amide], the IC50 worked out at 13.5 nM in assay [1] and 4.65 nM in assay [2].
On to `COC[C@@H](NC(=O)c1c[nH]c2ncc(-c3nn(C)c4cc(F)ccc34)nc12)[C@@H](C)O` [Example I-177, 2-(6-Fluoro-1-methyl-1H-indazol-3-yl)-5H-pyrrolo[2,3-b]pyrazine-7-carboxylic acid ((1R,2R)-2-hydroxy-1-methoxymethyl-propyl)-amide], for which the results for the IC50 in assay [1] and in assay [2] were 704 nM and 80.9 nM, respectively.
On to `CC[C@H](C)NC(=O)c1c[nH]c2ncc(-c3nn(C)c4cc(F)ccc34)nc12` [Example I-178, 2-(6-Fluoro-1-methyl-1H-indazol-3-yl)-5H-pyrrolo[2,3-b]pyrazine-7-carboxylic acid ((S)-sec-butyl)-amide], for which the IC50 in assay [1] is 4.6 nM; in assay [2], 1.9 nM.
In the case of `COC[C@H](CC(C)C)NC(=O)c1c[nH]c2ncc(-c3nn(C)c4cc(F)ccc34)nc12` [Example I-179, 2-(6-Fluoro-1-methyl-1H-indazol-3-yl)-5H-pyrrolo[2,3-b]pyrazine-7-carboxylic acid ((S)-1-methoxymethyl-3-methyl-butyl)-amide], the IC50 in assay [1] is 149 nM; in assay [2], 5.91 nM.
As to `CC(CC(C)(C)O)NC(=O)c1c[nH]c2ncc(-c3nn(C)c4cc(F)ccc34)nc12` (stereo not shown) [Example I-183, 2-(6-Fluoro-1-methyl-1H-indazol-3-yl)-5H-pyrrolo[2,3-b]pyrazine-7-carboxylic acid (3-hydroxy-1,3-dimethyl-butyl)-amide], the IC50 in assay [1] stood at 161 nM; in assay [2], 80 nM.
The like results for `CCCC(C)NC(=O)c1c[nH]c2ncc(-c3nn(C)c4cc(F)ccc34)nc12` (stereo not shown) [Example I-184, 2-(6-Fluoro-1-methyl-1H-indazol-3-yl)-5H-pyrrolo[2,3-b]pyrazine-7-carboxylic acid (1-methyl-butyl)-amide] were, in that order, 37.2 nM and 4.96 nM.
Consider `COC[C@@H](NC(=O)c1c[nH]c2ncc(-c3nn(C)c4cc(F)ccc34)nc12)[C@H](C)O` [Example I-188, 2-(6-Fluoro-1-methyl-1H-indazol-3-yl)-5H-pyrrolo[2,3-b]pyrazine-7-carboxylic acid ((1R,2S)-2-hydroxy-1-methoxymethyl-propyl)-amide], for which the IC50 in assay [1] stood at 168 nM; in assay [2], 31.7 nM.
